Here are results for four molecules from patent US11117947B2, “Double-acylated GLP-1 derivatives” (Novo Nordisk A/S, priority 2011, dated 2021).

Like-named read-outs stand apart in the source and are kept apart here. Numbered stars: 1 amine (or outer) side, 2 acyl side, 3 side chain; on linkers, the order of the positions; unused ones are H or OH. Square brackets hold non-standard residues; d marks the D form. Side chains are listed from the residue outwards. Peptide text beside a SMILES is read from it. * marks the point of attachment. γGlu = O=C(O)[C@H](CCC(=O)[*:2])N[*:1]; C14 diacid = O=C(O)CCCCCCCCCCCCC(=O)*; AEEA = NCCOCCOCC(=O)O; Aib = CC(C)(N)C(=O)O

One series concerns the target T1, human GLP-1 receptor (Homo sapiens, UniProt P43220).
T1 construct: expressed in transfected cells; membranes
Briefly: GLP-1 receptor binding: displacement of 125I-GLP-1 (SPA) at low and high albumin. Particulars: for Ratio [(IC50/nM) high HSA]/[(IC50/nM) low HSA]: 2.0% HSA vs 0.001% HSA. Put shortly:
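Membranes from hamster cells stably transfected with the receptor, with WGA SPA beads and 0.06 nM [^125I]-GLP-1(7-36)NH2, incubated 120 min at 30 °C with shaking.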
(In general: Displacement assays read how much labelled ligand stays bound in the presence of the test substance.)

The nature of series [1]: Estimate of oral bioavailability: gut injection in rat (caprate), exposure in plasma. The following applies: injection in jejunum, 1000 uM in 55 mg/ml sodium caprate, plasma concentration (pM) at 30 min divided by dosing solution concentration (μM), mean n=4. The class given is in vivo. A digest of the protocol: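 Male Sprague Dawley rats (~240 g, n=4) received 100 μl of 1000 uM derivative in 55 mg/ml sodium caprate by catheter into proximal or mid jejunum. Tail-vein EDTA plasma was sampled up to 240 min. Peptide was quantified by two-antibody bead chemiluminescence immunoassay, giving mean concentration-time profiles (pmol/l).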

[2] abbreviates: low albumin, 0.001% HSA, read-out: IC50/nM (low HSA).

T1 sequence (P43220 24-463): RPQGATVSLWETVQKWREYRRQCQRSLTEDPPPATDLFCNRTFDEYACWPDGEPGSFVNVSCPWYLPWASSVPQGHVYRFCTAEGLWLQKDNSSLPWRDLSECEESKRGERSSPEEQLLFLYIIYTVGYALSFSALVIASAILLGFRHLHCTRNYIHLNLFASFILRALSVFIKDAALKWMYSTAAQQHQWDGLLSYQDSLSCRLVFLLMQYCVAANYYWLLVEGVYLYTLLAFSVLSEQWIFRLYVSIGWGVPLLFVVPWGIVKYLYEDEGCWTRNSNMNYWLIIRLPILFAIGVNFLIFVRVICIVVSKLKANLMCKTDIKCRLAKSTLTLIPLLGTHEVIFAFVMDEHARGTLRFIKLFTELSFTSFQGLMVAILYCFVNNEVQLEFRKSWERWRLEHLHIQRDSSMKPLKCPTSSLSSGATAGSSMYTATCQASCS

With `CC[C@H](C)[C@H](NC(=O)[C@H](Cc1ccccc1)NC(=O)[C@H](CCCCNC(=O)COCCOCCNC(=O)COCCOCCNC(=O)CC[C@H](NC(=O)CCCCCCCCCCCCC(=O)O)C(=O)O)NC(=O)[C@H](CCCNC(=N)N)NC(=O)[C@@H](NC(=O)[C@H](C)NC(=O)[C@H](CCC(N)=O)NC(=O)[C@H](CCCCNC(=O)COCCOCCNC(=O)COCCOCCNC(=O)CC[C@H](NC(=O)CCCCCCCCCCCCC(=O)O)C(=O)O)NC(=O)[C@H](CCC(=O)O)NC(=O)[C@H](CC(C)C)NC(=O)[C@H](Cc1ccc(O)cc1)NC(=O)[C@H](CO)NC(=O)[C@H](CO)NC(=O)[C@@H](NC(=O)[C@H](CC(=O)O)NC(=O)[C@H](CO)NC(=O)[C@@H](NC(=O)[C@H](Cc1ccccc1)NC(=O)[C@@H](NC(=O)CNC(=O)[C@H](CCC(=O)O)NC(=O)C(C)(C)NC(=O)[C@@H](N)Cc1c[nH]cn1)[C@@H](C)O)[C@@H](C)O)C(C)C)C(C)C)C(=O)N[C@@H](C)C(=O)N[C@@H](Cc1c[nH]c2ccccc12)C(=O)N[C@@H](CC(C)C)C(=O)N[C@H](C(=O)N[C@@H](CCCNC(=N)N)C(=O)NCC(=O)O)C(C)C` [Example 9, N^ε22-[2-[2-[2-[[2-[2-[2-[[(4S)-4-carboxy-4-(13-carboxytridecanoylamino)butanoyl]amino]ethoxy]ethoxy]acetyl]amino]ethoxy]ethoxy]acetyl],N^ε27-[2-[2-[2-[[2-[2-[2-[[(4S)-4-carboxy-4-(13-carboxytridecanoylamino)butanoyl]amino]ethoxy]ethoxy]acetyl]amino]ethoxy]ethoxy]acetyl]-Aib^8,Lys^22,Val^25,Arg^26,Lys^27,Arg^34l-GLP-1-(7-35)-peptide] (H-H[Aib]EGTFTSDVSSYLEK([AEEA-AEEA-γGlu-C14 diacid])QAVRK([AEEA-AEEA-γGlu-C14 diacid])FIAWLVRG-OH), the “Ratio [(IC50/nM) high HSA]/[(IC50/nM) low HSA]” value at human GLP-1 receptor worked out at 157. In addition, the IC50 on human GLP-1 receptor (setting [2]) was found to be 0.38 nM. For the same molecule, in series [1], the “Dose-corrected exposure at 30 min” value is given as 65.
As to `CC[C@H](C)[C@H](NC(=O)[C@H](Cc1ccccc1)NC(=O)[C@H](CCCCNC(=O)COCCOCCNC(=O)COCCOCCNC(=O)CC[C@H](NC(=O)CCCCCCCCCCCCC(=O)O)C(=O)O)NC(=O)[C@H](CCCNC(=N)N)NC(=O)[C@@H](NC(=O)[C@H](C)NC(=O)[C@H](CCC(N)=O)NC(=O)CNC(=O)[C@H](CCC(=O)O)NC(=O)[C@H](CC(C)C)NC(=O)[C@H](Cc1ccc(O)cc1)NC(=O)[C@H](CO)NC(=O)[C@H](CO)NC(=O)[C@@H](NC(=O)[C@H](CC(=O)O)NC(=O)[C@H](CO)NC(=O)[C@@H](NC(=O)[C@H](Cc1ccccc1)NC(=O)[C@@H](NC(=O)CNC(=O)[C@H](CCC(=O)O)NC(=O)C(C)(C)NC(=O)[C@@H](N)Cc1c[nH]cn1)[C@@H](C)O)[C@@H](C)O)C(C)C)C(C)C)C(=O)N[C@@H](C)C(=O)N[C@@H](Cc1c[nH]cn1)C(=O)N[C@@H](CC(C)C)C(=O)N[C@H](C(=O)N[C@@H](CCC(N)=O)C(=O)NCC(=O)N[C@@H](CCCNC(=N)N)C(=O)N[C@@H](CCCCNC(=O)COCCOCCNC(=O)COCCOCCNC(=O)CC[C@H](NC(=O)CCCCCCCCCCCCC(=O)O)C(=O)O)C(=O)O)C(C)C` [Example 15, N^ε27-[2-[2-[2-[[2-[2-[2-[[(4S)-4-carboxy-4-(13-carboxytridecanoylamino)butanoyl]amino]ethoxy]ethoxy]acetyl]amino]ethoxy]ethoxy]acetyl], N^ε37-[2-[2-[2-[[2-[2-[2-[[(4S)-4-carboxy-4-(13-carboxytridecanoylamino)butanoyl]amino]ethoxy]ethoxy]acetyl]amino]ethoxy]ethoxy]acetyl]-[Aib^8,Val^25,Arg^26,Lys^27,His^31,Gln^34,Lys^37]-GLP-1-(7-37)-peptide] (H-H[Aib]EGTFTSDVSSYLEGQAVRK([AEEA-AEEA-γGlu-C14 diacid])FIAHLVQGRK([AEEA-AEEA-γGlu-C14 diacid])-OH), the “Ratio [(IC50/nM) high HSA]/[(IC50/nM) low HSA]” value at human GLP-1 receptor amounted to 155. The IC50 stood at 29 nM at human GLP-1 receptor (high albumin, 2.0% HSA, read-out: IC50/nM (high HSA)) and 0.19 nM at human GLP-1 receptor (setting [2]). In addition, the “Dose-corrected exposure at 30 min” value in series [1] is on record as 98.
For the molecule `CC[C@H](C)[C@H](NC(=O)[C@H](Cc1ccccc1)NC(=O)[C@H](CCCCNC(=O)COCCOCCNC(=O)COCCOCCNC(=O)CC[C@H](NC(=O)CCCCCCCCCCCCC(=O)O)C(=O)O)NC(=O)[C@H](CCCNC(=N)N)NC(=O)[C@@H](NC(=O)[C@H](C)NC(=O)[C@H](CCC(N)=O)NC(=O)CNC(=O)[C@H](CCC(=O)O)NC(=O)[C@H](CC(C)C)NC(=O)[C@H](Cc1ccc(O)cc1)NC(=O)[C@H](CO)NC(=O)[C@H](CO)NC(=O)[C@@H](NC(=O)[C@H](CC(=O)O)NC(=O)[C@H](CO)NC(=O)[C@@H](NC(=O)[C@H](Cc1ccccc1)NC(=O)[C@@H](NC(=O)CNC(=O)[C@H](CCC(=O)O)NC(=O)[C@H](C)NC(=O)[C@@H](N)Cc1c[nH]cn1)[C@@H](C)O)[C@@H](C)O)C(C)C)C(C)C)C(=O)N[C@@H](C)C(=O)N[C@@H](Cc1c[nH]cn1)C(=O)N[C@@H](CC(C)C)C(=O)N[C@H](C(=O)N[C@@H](CCC(N)=O)C(=O)NCC(=O)N[C@@H](CCCNC(=N)N)C(=O)N[C@@H](CCCCNC(=O)COCCOCCNC(=O)COCCOCCNC(=O)CC[C@H](NC(=O)CCCCCCCCCCCCC(=O)O)C(=O)O)C(=O)O)C(C)C` [Example 16, N^ε27-[2-[2-[2-[[2-[2-[2-[[(4S)-4-carboxy-4-(13-carboxytridecanoylamino)butanoyl]amino]ethoxy]ethoxy]acetyl]amino]ethoxy]ethoxy]acetyl], N^ε37-[2-[2-[2-[[2-[2-[2-[[(4S)-4-carboxy-4-(13-carboxytridecanoylamino)butanoyl]amino]ethoxy]ethoxy]acetyl]amino]ethoxy]ethoxy]acetyl]-[Val^25,Arg^26,Lys^27,His^31,Gln^34,Lys^37]-GLP-1-(7-37)-peptide] (H-HAEGTFTSDVSSYLEGQAVRK([AEEA-AEEA-γGlu-C14 diacid])FIAHLVQGRK([AEEA-AEEA-γGlu-C14 diacid])-OH; N-terminus and C-terminus assumed), the IC50 on human GLP-1 receptor (setting [2]) is 0.2 nM. Further, in series [1], the “Dose-corrected exposure at 30 min” value was 115.
In the same order, the values of `CC[C@H](C)[C@H](NC(=O)[C@H](Cc1ccccc1)NC(=O)[C@H](CCCCNC(=O)CC[C@H](NC(=O)COCCOCCNC(=O)COCCOCCNC(=O)CCCCCCCCCCCCC(=O)O)C(=O)O)NC(=O)[C@H](CCCNC(=N)N)NC(=O)[C@@H](NC(=O)[C@H](C)NC(=O)[C@H](CCC(N)=O)NC(=O)[C@H](CCCCNC(=O)CC[C@H](NC(=O)COCCOCCNC(=O)COCCOCCNC(=O)CCCCCCCCCCCCC(=O)O)C(=O)O)NC(=O)[C@H](CCC(=O)O)NC(=O)[C@H](CC(C)C)NC(=O)[C@H](Cc1ccc(O)cc1)NC(=O)[C@H](CO)NC(=O)[C@H](CO)NC(=O)[C@@H](NC(=O)[C@H](CC(=O)O)NC(=O)[C@H](CO)NC(=O)[C@@H](NC(=O)[C@H](Cc1ccccc1)NC(=O)[C@@H](NC(=O)CNC(=O)[C@H](CCC(=O)O)NC(=O)[C@H](C)NC(=O)[C@@H](N)Cc1c[nH]cn1)[C@@H](C)O)[C@@H](C)O)C(C)C)C(C)C)C(=O)N[C@@H](CCC(=O)O)C(=O)N[C@@H](Cc1c[nH]c2ccccc12)C(=O)N[C@@H](CC(C)C)C(=O)N[C@H](C(=O)N[C@@H](CCC(N)=O)C(=O)NCC(=O)N[C@@H](CCCNC(=N)N)C(=O)NCC(=O)O)C(C)C` [Example 20, N^ε22-[(4S)-4-carboxy-4-[[2-[2-[2-[[2-[2-[2-(13-carboxytridecanoylamino)ethoxy]ethoxy]acetyl]amino]ethoxy]ethoxy]acetyl]amino]butanoyl], N^ε27-[(4S)-4-carboxy-4-[[2-[2-[2-[[2-[2-[2-(13-carboxytridecanoylamino)ethoxy]ethoxy]acetyl]amino]ethoxy]ethoxy]acetyl]amino]butanoyl]-_[Lys^22,Val^25TArg^26,Lys^27,Glu^30,Gln^34]-GLP-1-(7-37)-peptide] (H-HAEGTFTSDVSSYLEK([γGlu-AEEA-AEEA-C14 diacid])QAVRK([γGlu-AEEA-AEEA-C14 diacid])FIEWLVQGRG-OH; N-terminus and C-terminus assumed) are 0.19 nM and 123.
